Test results from patent US20240245717A1, “ANTIVIRAL COMPOUNDS, COMPOSITIONS, AND USES THEREOF” (priority 2022, published 2024).
Several values for one entry are separate records, joined by “and”; a condition that tells them apart may be missing. Identical values can stand only once.

Experiments:
[1] = tested on: SARS-CoV-2 WAS-Calu-3; set-up: species or system Golden Syrian Hamsters; settings: hamster, in vivo
[2] = tested on: SARS-CoV-2 isolate Hong Kong/VM20001061/2020; assay: microbe, parasite or virus in culture; assay type: cell-based; set-up: % of control: dose or concentration left out as unconfirmed; settings: 48 hours
[3] = tested on: Pseudovirus rVSV-SARS-CoV-2; assay: microbe, parasite or virus in culture; assay type: cell-based; settings: for IC50: Pseudovirus, Vero, 24 h, read-out: NT50

SMILES	body weight of infected, treated hamsters [1]	viral titers from harvested lungs [1]	% of control [2]	inhibition at 3120 µg/mL ([2]; Severe acute respiratory syndrome coronavirus 2, HEK-293T, 3.12 mg/ml) [%]	neutralization of SARS CoV-2 infection in vitro [3]	IC50 [3] [mg/mL]
CCCCOP(=O)(O)OC[C@H]1O[C@@H](n2cc(C)c(=O)[nH]c2=O)C[C@@H]1OP(=O)(O)OCCCC [Nu-3, butyl-phosphate-5′-thymidine-3′-phosphate-butyl]	began to regain body weight	did not show any measurable viral particles, with the exception of one hamster	–	–	–	–
CCCCOP(=O)(O)OC[C@H]1O[C@@H](n2ccc(N)nc2=O)C[C@@H]1OP(=O)(O)OCCCC [Nu-8, ((2R,3S,5R)-5-(4-amino-2-oxopyrimidin-1(2H)-yl)-3-((butoxyoxidophosphor-yl)oxy)tetrahydrofuran-2-yl)methyl butyl phosphate]	began to regain body weight	no virus detected	–	–	–	–
CCCCOP(=O)(O)OC[C@H]1O[C@@H](n2ccc(N)nc2=O)[C@H](OC)[C@@H]1OP(=O)(O)OCCCC [Nu-10, ((2R,3R,4R,5R)-5-(4-amino-2-oxopyrimidin-1(2H)-yl)-3-((butoxy(hydroxy)phosphoryl)oxy)-4-methoxytetrahydrofuran-2-yl) methyl butyl hydrogen phosphate]	–	–	3% and 8%	97	neutralize SARS CoV-2 infection in vitro	21.8
CCCCOP(=O)(O)OC[C@H]1O[C@@H](n2cnc3c(N)ncnc32)[C@H](OC)[C@@H]1OP(=O)(O)OCCCC [Nu-11, (2R,3R,4R,5R)-5-(6-aminopurin-9-yl)-3-((butoxy(hydroxy)phosphoryl)oxy)-4-methoxytetrahydrofuran-2-yl)methyl butyl hydrogen phosphate]	–	–	–	–	neutralize SARS CoV-2 infection in vitro	1.15
